What was measured:
Format in all cases: in vivo
Abutilon theophrasti [1] = experiment: Pre-emergence herbicidal activity, ABUTH; settings: application pre-emergence, 1000 g/Ha, evaluated after 13 days; 5=total damage to plant, 0=no damage to plant
Protocol: (§1) Seeds of a variety of test species were sown in standard soil in pots. After cultivation for one day (pre-emergence) under controlled conditions in a glasshouse (at 24/16° C., day/night; 14 hours light; 65% humidity), the plants were sprayed with an aqueous spray solution derived from the formulation of the technical active ingredient in acetone/water (50:50) solution containing 0.5% Tween 20 (polyoxyethelyene sorbitan monolaurate, CAS RN 9005-64-5). The test plants were then grown in a glasshouse under controlled conditions (at 24/16° C., day/night; 14 hours light; 65% humidity) and watered twice daily. After 13 days, the test was evaluated (5=total damage to plant; 0=no damage to plant).

Amaranthus retroflexus [2] = experiment: Pre-emergence herbicidal activity, AMARE; settings: application pre-emergence, 1000 g/Ha, evaluated after 13 days; 5=total damage to plant, 0=no damage to plant
Protocol: as §1

Lolium perenne [3] = experiment: Pre-emergence herbicidal activity, LOLPE; settings: application pre-emergence, 1000 g/Ha, evaluated after 13 days; 5=total damage to plant, 0=no damage to plant
Protocol: as §1

Setaria faberi [4] = experiment: Pre-emergence herbicidal activity, SETFA; settings: application pre-emergence, 1000 g/Ha, evaluated after 13 days; 5=total damage to plant, 0=no damage to plant
Protocol: as §1

Echinochloa crus-galli [5] = experiment: Pre-emergence herbicidal activity, ECHCG; settings: application pre-emergence, 1000 g/Ha, evaluated after 13 days; 5=total damage to plant, 0=no damage to plant
Protocol: as §1

Zea mays [6] = experiment: Pre-emergence herbicidal activity, ZEAMX; settings: application pre-emergence, 1000 g/Ha, evaluated after 13 days; 5=total damage to plant, 0=no damage to plant
Protocol: as §1

Abutilon theophrasti [7] = experiment: Post-emergence herbicidal activity, ABUTH; settings: application post-emergence, 1000 g/Ha, evaluated after 13 days; 5=total damage to plant, 0=no damage to plant
Protocol: (§2) Seeds of a variety of test species were sown in standard soil in pots. After 8 days cultivation (post-emergence) under controlled conditions in a glasshouse (at 24/16° C., day/night; 14 hours light; 65% humidity), the plants were sprayed with an aqueous spray solution derived from the formulation of the technical active ingredient in acetone/water (50:50) solution containing 0.5% Tween 20 (polyoxyethelyene sorbitan monolaurate, CAS RN 9005-64-5). The test plants were then grown in a glasshouse under controlled conditions (at 24/16° C., day/night; 14 hours light; 65% humidity) and watered twice daily. After 13 days, the test was evaluated (5=total damage to plant; 0=no damage to plant).

Amaranthus retroflexus [8] = experiment: Post-emergence herbicidal activity, AMARE; settings: application post-emergence, 1000 g/Ha, evaluated after 13 days; 5=total damage to plant, 0=no damage to plant
Protocol: as §2

Lolium perenne [9] = experiment: Post-emergence herbicidal activity, LOLPE; settings: application post-emergence, 1000 g/Ha, evaluated after 13 days; 5=total damage to plant, 0=no damage to plant
Protocol: as §2

Setaria faberi [10] = experiment: Post-emergence herbicidal activity, SETFA; settings: application post-emergence, 1000 g/Ha, evaluated after 13 days; 5=total damage to plant, 0=no damage to plant
Protocol: as §2

Echinochloa crus-galli [11] = experiment: Post-emergence herbicidal activity, ECHCG; settings: application post-emergence, 1000 g/Ha, evaluated after 13 days; 5=total damage to plant, 0=no damage to plant
Protocol: as §2

Zea mays [12] = experiment: Post-emergence herbicidal activity, ZEAMX; settings: application post-emergence, 1000 g/Ha, evaluated after 13 days; 5=total damage to plant, 0=no damage to plant
Protocol: as §2

SMILES	ABUTH damage score (Abutilon theophrasti [1])	AMARE damage score (Amaranthus retroflexus [2])	LOLPE damage score (Lolium perenne [3])	SETFA damage score (Setaria faberi [4])	ECHCG damage score (Echinochloa crus-galli [5])	ZEAMX damage score (Zea mays [6])	ABUTH damage score (Abutilon theophrasti [7])	AMARE damage score (Amaranthus retroflexus [8])	LOLPE damage score (Lolium perenne [9])	SETFA damage score (Setaria faberi [10])	ECHCG damage score (Echinochloa crus-galli [11])	ZEAMX damage score (Zea mays [12])
C[C@@H]1C(O)N(c2ncc(C(F)(F)F)s2)C(=O)N1C (mixture of isomers) [Compound A6]	5	5	5	5	5	4	5	5	5	5	5	5
CCCOC1C(O)N(c2ncc(C(F)(F)F)s2)C(=O)N1C (centres unmarked) [Compound A1]	5	5	4	4	5	1	5	5	5	5	5	3
CCOC1C(O)N(c2ncc(C(F)(F)F)s2)C(=O)N1C (centres unmarked) [Compound A2, 5-ethoxy-4-hydroxy-1-methyl-3-[5-(trifluoromethyl)thiazol-2-yl]imidazolidin-2-one]	5	5	5	5	5	3	5	5	5	5	5	5
COC1C(O)N(c2ncc(C(F)(F)F)s2)C(=O)N1C (centres unmarked) [Compound A3]	5	5	5	5	5	2	5	5	5	5	5	4
CN1C(=O)N(c2ncc(C(F)(F)F)s2)C(O)C1O (centres unmarked) [Compound A4, 4,5-dihydroxy-1-methyl-3-[5-(trifluoromethyl)thiazol-2-yl]imidazolidin-2-one]	5	5	4	4	5	3	5	5	5	5	5	4
CN1CC(O)N(c2ncc(C(F)(F)F)s2)C1=O (centres unmarked) [Compound A5, 4-hydroxy-1-methyl-3-[5-(trifluoromethyl)thiazol-2-yl]imidazolidin-2-one]	5	5	5	5	4	2	5	5	5	5	5	5
CN1CC(O)N(c2ncc(C(C)(C)C)s2)C1=O (centres unmarked) [Compound A7]	5	5	4	5	4	3	5	5	5	5	5	5
CCO[C@@H]1C(O)N(c2ncc(C(F)(F)F)s2)C(=O)N1C (some centres unmarked) [Compound A8]	5	5	4	5	5	3	5	5	5	5	5	5
CCO[C@H]1C(O)N(c2ncc(C(F)(F)F)s2)C(=O)N1C (some centres unmarked) [Compound A9]	2	5	2	4	1	1	3	5	3	4	2	2
CCOC1C(O)N(c2ncc(C(C)C)s2)C(=O)N1C (centres unmarked) [Compound A10]	0	4	0	0	0	0	4	3		2	2	0
CON1C(=O)N(c2ncc(C(F)(F)F)s2)C(O)C1C (centres unmarked) [Compound B7]	5	5	4	5	4	3	5	5	5	5	5	4

From US10098351B2, “Herbicidal compounds” (SYNGENTA PARTICIPATIONS AG, priority 2014, dated 2018)
